For test [1], the target named is T1, 14-3-3σ/ERα (Homo sapiens, UniProt P03372+P31947).
T1 construct: The 14-3-3 σ isoform (full-length for mass spectrometry and fluorescence anisotropy assays, ΔC for crystallography); made in house; host or cells: E. coli Rosetta 2(DE3)pLysS, pPROEX HTb vector
Briefly: Mass spectrometry dose response, compound binding to 14-3-3σ in the presence of ERα phosphopeptide. Particulars: 100 nM compound, 100 nM 14-3-3σ, ERα-peptide 2 µM. The procedure, abridged: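 Covalent labeling of Cys38 on 14-3-3σ was tracked by LC-MS on a Waters Acquity UPLC/Xevo G2-XS Q-Tof, with samples desalted on a Protein BEH-C4 column. Full-length wild type 14-3-3σ (100 nM) plus ERα phosphopeptide was mixed with compound in 10 mM TRIS, pH 8.0, at 50 μl per well. Percent bound was measured at several time points.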

The target of test [2] is T2, 14-3-3σ/C-RAF (Homo sapiens, UniProt P31947).
T2 construct: The 14-3-3 σ isoform (full-length for mass spectrometry and fluorescence anisotropy assays, ΔC for crystallography); made in house; host or cells: E. coli Rosetta 2(DE3)pLysS, pPROEX HTb vector
T2 sequence (P31947 1-248): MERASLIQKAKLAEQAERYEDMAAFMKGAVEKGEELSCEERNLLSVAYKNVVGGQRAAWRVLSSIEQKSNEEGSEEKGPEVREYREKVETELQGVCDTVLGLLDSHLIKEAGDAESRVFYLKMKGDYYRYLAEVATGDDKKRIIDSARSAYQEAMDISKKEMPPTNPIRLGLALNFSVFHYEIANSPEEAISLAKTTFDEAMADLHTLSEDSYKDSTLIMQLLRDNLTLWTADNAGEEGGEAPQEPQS
Briefly: Mass spectrometry dose response, compound binding to 14-3-3σ in the presence of C-RAF phosphopeptide. Particulars: 100 nM compound, 100 nM 14-3-3σ, C-RAF peptide 18 µM. In short, it runs like this: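 Compound stocks of 50 mM in DMSO were serially diluted 3-fold to give 19-point dose responses topping out at 1 mM, then 1000 nl was transferred into 50 μl wells holding 100 nM full-length wild type 14-3-3σ plus C-RAF phosphopeptide. Mass spectrometry measured percent compound bound to Cys38, with curves fitted in GraphPad Prism using a four-parameter variable-slope model.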

Test [3] concerns the target T2, 14-3-3σ/C-RAF. Briefly: Fluorescence anisotropy compound titration, FAM-labeled C-RAF peptide. The test is classed as binding. Particulars: 10 nM C-RAF-FAM labeled peptide, 5 µM 14-3-3σ, overnight incubation; read-out: EC50 value C-RAF (FA compound titration). The text has this:
Two orthogonal assays were developed for screening. For the primary assay, mass spectrometry (MS) was used to monitor the formation of the covalent bond between the compound and the native cysteine (Cys38 on 14-3-3σ) (Figure 1D). The assay was first performed in the absence of peptide to determine binding to 14-3-3σ only (apo screening, D1) and then in the presence of both 14-3-3σ and the peptide as an indication of how much the peptide stabilized compound binding (D2). […] As a secondary assay, fluorescence anisotropy (FA) was used. In this case, compounds were titrated to mixtures of 14-3-3σ and FAM-labeled peptides. […] Thus, the two assays are highly complementary; the MS assay reports on compound binding and the FA assay reports on peptide binding. […]
diluted in buffer (10 mM HEPES, pH 7.5, 150 mM NaCl, 0.1% Tween20, 1 mg/mL Bovine Serum Albumin (BSA; Sigma-Aldrich). Final DMSO in the assay was always 1%. Dilution series of 14-3-3 proteins or compounds were made in […]
Compound titrations were made by titrating the compound in a 2-fold dilution series (starting at 500 or 1000 µM) to a mix of fluorescein-labeled peptide (10 nM) and 14-3-3σ (concentration at approximately the EC20 to EC30 value of the protein-peptide complex; 1 µM for ERα and 5 µM for C-RAF). Using the ~EC25 value makes the assay sensitive for measuring an increase in PPI formation. Fluorescence anisotropy measurements were performed directly and after overnight incubation at room temperature. […]
Wells containing only FAM-peptide were used to set as G-factor at 35 mP. Data reported are at endpoint. EC50 and apparent Kd values were obtained from fitting the data with a four-parameter logistic model (4PL) in GraphPad Prism 7 for Windows. Data was obtained and averaged based on either three (compound titrations) or two (protein titrations) independent experiments.
(In fluorescence polarisation assays a small probe gives low polarisation when free and higher when bound to something large.)

Test [4] deals with T3, 14-3-3σ (Homo sapiens, UniProt P31947).
T3 construct: The 14-3-3 σ isoform (full-length for mass spectrometry and fluorescence anisotropy assays, ΔC for crystallography); made in house; host or cells: E. coli Rosetta 2(DE3)pLysS, pPROEX HTb vector
T3 sequence (P31947 1-248): T2 sequence (P31947 1-248)
The test is described as follows: Mass spectrometry dose response, compound binding to 14-3-3σ in the absence of peptide (apo). The settings on record: 100 nM compound, 100 nM 14-3-3σ. The procedure, abridged: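 This apo mass spectrometry assay tracked adduct formation between compounds and the native cysteine of 14-3-3σ in the absence of any peptide. Wells held 100 nM protein in 10 mM TRIS pH 8.0 with a 3-fold compound dilution series, final volume 50 μl. Injections of 6 μl were taken at 1h, 8h, 16h and 24h, and dose responses were fitted with a four-parameter variable-slope model in GraphPad Prism.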

For test [5], the target named is T1, 14-3-3σ/ERα. Briefly: Fluorescence anisotropy compound titration, FAM-labeled ERα peptide. It is filed as binding. Particulars: 10 nM ERα-FAM labeled peptide, 1 µM 14-3-3σ, overnight incubation (24 h); read-out: EC50 value ERα (FA compound titration). In short, it runs like this:
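Compounds, serially diluted 2-fold from a top concentration of 500 or 1000 µM, were added to 10 nM FAM-labeled ERα peptide plus 1 µM 14-3-3σ in 10 mM HEPES pH 7.5, 150 mM NaCl, 0.1% Tween20, 1 mg/mL BSA (1% DMSO). Anisotropy was measured after overnight room-temperature incubation, and EC50 values were derived by four-parameter logistic fitting averaged over three independent experiments.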

The structures appear in SMILES notation. Some results are limits rather than exact numbers.

`NC1CCC(Oc2ccc(Cl)cc2)(C(=O)N2CCC(CNC(=O)CCl)CC2)CC1` (stereo not drawn) [compound 135]: in test [1], the “Percentage (%) bound of compound to 14-3-3σ, ERα 1h” value (shortened to “Percentage (%) bound … ERα 1h”) was found to be 11.3%; the “Percentage (%) bound of compound to 14-3-3σ, ERα 8h” value (from here on “Percentage (%) bound … ERα 8h”) was 22.2%; the “Percentage (%) bound of compound to 14-3-3σ, ERα 16h” value (“Percentage (%) bound … ERα 16h” for short) is listed as 42.2%; the “Percentage (%) bound of compound to 14-3-3σ, ERα 24h” value (from here on “Percentage (%) bound … ERα 24h”) is listed as 64.2%. Further, in test [2], the “Percentage (%) bound of compound to 14-3-3σ, CRAF 1h” value (from here on “Percentage (%) bound … CRAF 1h”) worked out at 0.5% and the “Percentage (%) bound of compound to 14-3-3σ, CRAF 8h” value (from here on “Percentage (%) bound … CRAF 8h”) was 1.8%. Further, in test [2] (24h), the “Percentage (%) bound of compound to 14-3-3σ, CRAF 24h” value (from here on “Percentage (%) bound … CRAF 24h”) is recorded as 3.4%. The “Percentage (%) bound … CRAF 24h” value in test [2] (head prints 24h) turned out to be 2.6%. The EC50 in test [3] was above 150 µM. Moreover, in test [4], the “Percentage (%) bound of compound to 14-3-3σ, APO 1h” value (“Percentage (%) bound … APO 1h” for short) is 0.8%; the “Percentage (%) bound of compound to 14-3-3σ, APO 8h” value (“Percentage (%) bound … APO 8h” for short) worked out at 0.9%; the “Percentage (%) bound of compound to 14-3-3σ, APO 16h” value (“Percentage (%) bound … APO 16h” for short) is given as 1.8%; the “Percentage (%) bound of compound to 14-3-3σ, APO 24h” value (from here on “Percentage (%) bound … APO 24h”) was 2.4%. For the same compound, the EC50 in test [5] was 37 ± 5 µM.
Turning to `O=C(CCl)N1CC2(CCN(C(=O)C3(Nc4ccc(Cl)cc4)CCOCC3)CC2)C1` [compound 160], in test [1], the “Percentage (%) bound … ERα 1h” value stood at 6.9%; the “Percentage (%) bound … ERα 8h” value is reported as 8.6%; the “Percentage (%) bound … ERα 16h” value is listed as 48.4%; the “Percentage (%) bound … ERα 24h” value was 76.6%. For the same compound, in test [2], the “Percentage (%) bound … CRAF 1h” value was 0.4% and the “Percentage (%) bound … CRAF 8h” value is given as 1.9%. Also, the “Percentage (%) bound … CRAF 24h” value in test [2] (24h) worked out at 8.4%. Besides, the “Percentage (%) bound … CRAF 24h” value in test [2] (head prints 24h) is 3.8%. In addition, the EC50 in test [3] is above 150 µM. Besides, in test [4], the “Percentage (%) bound … APO 1h” value turned out to be 0%; the “Percentage (%) bound … APO 8h” value was found to be 0%; the “Percentage (%) bound … APO 16h” value was found to be 1.0%; the “Percentage (%) bound … APO 24h” value was 5.8%. In addition, the EC50 in test [5] was 16 ± 1 µM.
On to `O=C(CCl)NCC1CCN(C(=O)C2(Oc3ccc(Cl)cc3)CCC(F)(F)CC2)CC1` [compound 124], for which, in test [1], the “Percentage (%) bound … ERα 1h” value was 7.4%; the “Percentage (%) bound … ERα 8h” value was found to be 15.3%; the “Percentage (%) bound … ERα 16h” value is on record as 33.4%; the “Percentage (%) bound … ERα 24h” value was determined as 66.9%. In test [2], the “Percentage (%) bound … CRAF 1h” value was 2.0% and the “Percentage (%) bound … CRAF 8h” value is recorded as 2.9%. In addition, the “Percentage (%) bound … CRAF 24h” value in test [2] (24h) came out at 15.3%. The “Percentage (%) bound … CRAF 24h” value in test [2] (head prints 24h) came to 9.1%. Moreover, the EC50 in test [3] is above 150 µM. In test [4], the “Percentage (%) bound … APO 1h” value was 0%; the “Percentage (%) bound … APO 8h” value was determined as 1.0%; the “Percentage (%) bound … APO 16h” value came out at 1.4%; the “Percentage (%) bound … APO 24h” value came to 1.6%. Moreover, the EC50 in test [5] was found to be 18 ± 0.4 µM.
Take `Cl.O=C(CCl)NCC1CCN(C(=O)C2(Oc3ccc(Cl)cc3)CCNCC2)CC1` [compound 129]: in test [1], the “Percentage (%) bound … ERα 1h” value was found to be 16.5%; the “Percentage (%) bound … ERα 8h” value came to 31.4%; the “Percentage (%) bound … ERα 16h” value was determined as 58.4%; the “Percentage (%) bound … ERα 24h” value is 82.6%. In addition, in test [2], the “Percentage (%) bound … CRAF 1h” value is recorded as 0.4% and the “Percentage (%) bound … CRAF 8h” value stood at 0.6%. Also, the “Percentage (%) bound … CRAF 24h” value in test [2] (24h) worked out at 2.6%. Also, the “Percentage (%) bound … CRAF 24h” value in test [2] (head prints 24h) turned out to be 1.9%. The EC50 in test [3] is above 150 µM. In addition, in test [4], the “Percentage (%) bound … APO 1h” value is recorded as 0.9%; the “Percentage (%) bound … APO 8h” value amounted to 2.0%; the “Percentage (%) bound … APO 16h” value is recorded as 2.4%; the “Percentage (%) bound … APO 24h” value is 4.8%. Further, the EC50 in test [5] stood at 30 ± 1 µM.
In the case of `O=C(CCl)N1CCC2(CC1)CN(C(=O)C1(Nc3ccc(Cl)cc3)CCOCC1)C2` [compound 161], in test [1], the “Percentage (%) bound … ERα 1h” value is on record as 4.7%; the “Percentage (%) bound … ERα 8h” value is reported as 7.8%; the “Percentage (%) bound … ERα 16h” value was found to be 14.9%; the “Percentage (%) bound … ERα 24h” value was 39.8%. In addition, in test [2], the “Percentage (%) bound … CRAF 1h” value is given as 0% and the “Percentage (%) bound … CRAF 8h” value stood at 0.6%. The “Percentage (%) bound … CRAF 24h” value in test [2] (24h) is recorded as 2.1%. The “Percentage (%) bound … CRAF 24h” value in test [2] (head prints 24h) is given as 1.0%. Also, the EC50 in test [3] is above 150 µM. In test [4], the “Percentage (%) bound … APO 1h” value amounted to 0%; the “Percentage (%) bound … APO 8h” value was found to be 0%; the “Percentage (%) bound … APO 16h” value amounted to 0.5%; the “Percentage (%) bound … APO 24h” value came to 1.0%. Further, the EC50 in test [5] was 22 ± 1 µM.
For the compound `O=C(CCl)NCC1CCN(C(=O)C2(Nc3ccc(Cl)cc3)CCCCC2)CC1` [compound 123], in test [1], the “Percentage (%) bound … ERα 1h” value is recorded as 3.4%; the “Percentage (%) bound … ERα 8h” value was determined as 8.3%; the “Percentage (%) bound … ERα 16h” value amounted to 20.8%; the “Percentage (%) bound … ERα 24h” value is on record as 63.9%. For the same compound, in test [2], the “Percentage (%) bound … CRAF 1h” value was 1.0% and the “Percentage (%) bound … CRAF 8h” value came to 1.9%. The “Percentage (%) bound … CRAF 24h” value in test [2] (24h) was determined as 3.5%. The “Percentage (%) bound … CRAF 24h” value in test [2] (head prints 24h) was found to be 1.9%. The EC50 in test [3] was 59 ± 4 µM. Further, in test [4], the “Percentage (%) bound … APO 1h” value amounted to 0.0%; the “Percentage (%) bound … APO 8h” value is on record as 1.0%; the “Percentage (%) bound … APO 16h” value amounted to 1.0%; the “Percentage (%) bound … APO 24h” value amounted to 1.9%. In addition, in test [5], the EC50 is 8 ± 1 µM.
